We go through 20 molecules from ChEMBL document CHEMBL5528002, “Identification of selective 5-LOX and FLAP inhibitors as novel anti-inflammatory agents by ligand-based virtual screening” (Eur J Med Chem, 2024).

Activity calls are given as the source filed them. No cut-off for these calls is given here. A value given as a limit tells only on which side of the number the result lay.

In experiment [1] the target is T1, Bifunctional epoxide hydrolase 2 (Homo sapiens) (UniProt P34913).
T1 sequence (whole entry): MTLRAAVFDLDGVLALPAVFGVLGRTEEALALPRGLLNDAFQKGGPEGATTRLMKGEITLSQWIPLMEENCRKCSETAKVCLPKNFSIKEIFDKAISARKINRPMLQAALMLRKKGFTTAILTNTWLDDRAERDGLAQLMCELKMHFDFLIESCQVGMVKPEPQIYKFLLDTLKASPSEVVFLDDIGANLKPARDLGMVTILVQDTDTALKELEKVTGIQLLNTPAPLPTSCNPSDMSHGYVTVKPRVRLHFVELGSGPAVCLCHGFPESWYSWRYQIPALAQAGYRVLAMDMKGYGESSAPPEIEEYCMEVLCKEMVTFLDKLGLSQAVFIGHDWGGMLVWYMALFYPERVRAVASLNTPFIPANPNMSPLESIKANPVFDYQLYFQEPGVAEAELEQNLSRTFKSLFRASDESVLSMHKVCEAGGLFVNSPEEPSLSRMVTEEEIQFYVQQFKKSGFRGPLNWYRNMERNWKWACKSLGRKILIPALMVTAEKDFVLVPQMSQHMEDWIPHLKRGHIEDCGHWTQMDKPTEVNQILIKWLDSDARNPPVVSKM
Briefly: Inhibition of human sEH assessed as enzyme remaining activity at 10 uM relative to control.

For experiment [2], the target named is T2, Prostaglandin E synthase (Homo sapiens) (UniProt O14684).
T2 sequence (whole entry): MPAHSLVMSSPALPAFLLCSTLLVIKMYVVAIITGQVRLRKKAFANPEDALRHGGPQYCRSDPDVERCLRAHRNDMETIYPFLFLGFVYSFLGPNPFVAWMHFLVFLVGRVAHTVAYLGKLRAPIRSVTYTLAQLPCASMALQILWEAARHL
Briefly: Inhibition of human mPGES-1 at 10 uM relative to control.

In experiment [3] the target is T1, Bifunctional epoxide hydrolase 2 (Homo sapiens). Kind of experiment: Inhibition of human sEH at 10 uM relative to control.
In experiment [4] the target is T3, Polyunsaturated fatty acid 5-lipoxygenase (Homo sapiens) (UniProt P09917).
T3 sequence (whole entry): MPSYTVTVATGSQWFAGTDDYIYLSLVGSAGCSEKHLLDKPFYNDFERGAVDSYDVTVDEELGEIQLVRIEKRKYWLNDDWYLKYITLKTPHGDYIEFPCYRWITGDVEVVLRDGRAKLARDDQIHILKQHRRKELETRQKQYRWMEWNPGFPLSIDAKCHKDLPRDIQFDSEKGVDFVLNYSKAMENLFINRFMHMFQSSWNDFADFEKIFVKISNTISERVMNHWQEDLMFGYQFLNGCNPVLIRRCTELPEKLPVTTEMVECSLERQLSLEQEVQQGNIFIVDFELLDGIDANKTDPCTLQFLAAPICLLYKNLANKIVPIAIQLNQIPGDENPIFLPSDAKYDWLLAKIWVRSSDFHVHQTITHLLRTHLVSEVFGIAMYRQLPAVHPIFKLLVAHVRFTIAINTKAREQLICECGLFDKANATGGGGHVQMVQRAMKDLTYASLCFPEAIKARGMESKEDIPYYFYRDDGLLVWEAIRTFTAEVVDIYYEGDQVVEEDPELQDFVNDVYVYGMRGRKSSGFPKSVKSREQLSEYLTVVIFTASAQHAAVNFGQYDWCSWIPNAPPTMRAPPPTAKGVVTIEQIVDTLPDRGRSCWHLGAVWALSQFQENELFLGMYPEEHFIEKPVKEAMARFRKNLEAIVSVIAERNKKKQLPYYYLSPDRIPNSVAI
Kind of experiment: Inhibition of 5-LOX in human Neutrophil at 10 uM preincubated with compound for 15 mins followed by A23187 addition measured after 10 mins by RP-HPLC analysis relative to control. In kind it is cell-based. The note with it: time 25.0 min.

For experiment [5], the target named is T2, Prostaglandin E synthase (Homo sapiens). Briefly: Inhibition of human mPGES-1 assessed as enzyme remaining activity at 10 uM relative to control.
For experiment [6], the target named is T3, Polyunsaturated fatty acid 5-lipoxygenase (Homo sapiens). Briefly: Inhibition of human recombinant 5-LOX expressed in Escherichia coli BL21(DE3) assessed as enzyme remaining activity at 10 uM using arachidonic acid as substrate preincubated with compound for 15 mins followed by substrate and CaCl2 addition measured after 10 mins by RP-HPLC analysis relative to control. The note with it: time 25.0 min.

The target is the same in experiment [7]. Briefly: Inhibition of 5-LOX in human Neutrophil assessed as enzyme remaining activity at 10 uM preincubated with compound for 15 mins followed by A23187 addition measured after 10 mins by RP-HPLC analysis relative to control. In kind it is cell-based. The note with it: time 25.0 min.
For experiment [8] the target is unchanged. Kind of experiment: Inhibition of 5-LOX in human Neutrophil assessed as enzyme remaining activity at 10 uM using arachidonic acid as substrate preincubated with compound for 15 mins followed by substrate and A23187 addition measured after 10 mins by RP-HPLC analysis relative to control. In kind it is cell-based. The note with it: time 25.0 min.

`Cc1ccn(C(=O)C2=Cc3ccccc3OC2)c(=N)c1`: the Activity in experiment [1] worked out at 121%; in experiment [5], 84.3%. The inhibition result in experiment [2] and in experiment [4] was “inactive” each time. For the same molecule, in experiment [3], the inhibition is more than 35%.
On to `CC(=O)c1ccc(NCN2C(=O)c3ccccc3C2=O)cc1`, for which the Activity in experiment [1] is 102%; in experiment [5], 47.6%; in experiment [6], 97.2%; in experiment [7], 72.8%; in experiment [8] it was 91.8%. For the same molecule, the inhibition in experiment [2] was more than 50%; in experiment [3] it was more than 35%. Further, in experiment [4], the inhibition result is “inactive”.
In the case of `O=C(NCc1ccco1)Nc1cccc(-c2ccccc2)c1`, the Activity came out at 91.4% in experiment [1]; 88.1% in experiment [5]; 96.4% in experiment [6]; 97% in experiment [7]; 92.4% in experiment [8]. In addition, the inhibition result in experiment [2] and in experiment [4] was “inactive” each time. The same molecule returned an inhibition in experiment [3] of more than 35%.
As to `Cn1c(=O)c2nc(CCCc3nc4ccccc4[nH]3)[nH]c2n(C)c1=O`, the Activity came to 92.7% in experiment [1]; 90.9% in experiment [5]; 98.5% in experiment [6]; 113% in experiment [7]; 98.3% in experiment [8]. Moreover, the inhibition result in experiment [2] and in experiment [4] was “inactive” throughout. Further, the inhibition in experiment [3] was more than 35%.
`O=C1C(C(O)c2ccccc2)CCCC1C(O)c1ccccc1` (centres undefined): the Activity in experiment [1] turned out to be 132%; in experiment [5], 81.1%; in experiment [6] it was 103%; in experiment [7], 152%; in experiment [8] it was 77.9%. Also, the inhibition entry in experiment [2] and in experiment [4] was “inactive” in each case. In experiment [3], the inhibition was more than 35%.
Consider `CC(=O)c1cccc(NC(=O)Oc2ccc3c(C)cc(=O)oc3c2)c1`, for which the Activity in experiment [1] stood at 196%; in experiment [5] it was 93.4%; in experiment [6] it was 115%; in experiment [7], 104%; in experiment [8], 106%. Further, the inhibition entry in experiment [2] and in experiment [4] was “inactive” in each case. In addition, the inhibition in experiment [3] was more than 35%.
On to `Cc1ccc(Nc2nnc(-c3ccc4c(c3)OCO4)o2)c(C)c1`, for which the Activity came to 90.6% in experiment [1]; 57.9% in experiment [5]; 14% in experiment [6]; 106% in experiment [7]; 69.8% in experiment [8]. Moreover, the inhibition was less than 40% in experiment [2] and more than 35% in experiment [3]. Besides, in experiment [4], the inhibition result was “inactive”.
As for `Cc1cc(=O)oc(C)c1C(=O)Oc1ccc2ccccc2c1`, the Activity in experiment [1] came out at 75.7%; in experiment [5], 88.2%; in experiment [6], 91.1%; in experiment [7] it was 87.9%; in experiment [8] it was 79.5%. The inhibition result in experiment [2] and in experiment [4] was “inactive” in each case. This molecule displayed an inhibition in experiment [3] of more than 35%.
Take `O=C(O)c1cc(O)c2cc(Cc3ccccc3)ccc2n1`: the Activity in experiment [1] amounted to 147%; in experiment [5] it was 98.3%. Also, the inhibition result in experiment [2] and in experiment [4] was “inactive” throughout. Besides, in experiment [3], the inhibition is more than 35%.
Take `O=C(/C=C/c1ccccc1)NCCC1(O)C(=O)Nc2ccccc21` (centres undefined): the Activity in experiment [1] is 88.2%; in experiment [5] it was 98.2%. Moreover, the inhibition result in experiment [2] and in experiment [4] was “inactive” throughout. In experiment [3], the inhibition is more than 35%.
Consider `CC(=O)c1cccc2cc(CC(=O)c3ccccc3)c(=O)oc12`, for which the Activity in experiment [1] is 79.7%; in experiment [5], 59%; in experiment [6], 105%; in experiment [7], 81.6%; in experiment [8], 94.9%. Besides, the inhibition is less than 40% in experiment [2] and more than 35% in experiment [3]. Also, in experiment [4], the inhibition entry is “inactive”.
For the molecule `N=c1[nH]nc2nc(CC(=O)c3ccc4ccccc4c3)c(=O)[nH]n12`, the inhibition entry in experiment [2] and in experiment [4] was “inactive” each time. Also, in experiment [3], the inhibition was more than 35%.
For `NS(=O)(=O)c1ccc(NCc2cnc3ccccc3c2)cc1`, the Activity in experiment [1] is 112%; in experiment [5], 86.3%; in experiment [6] it was 96.5%; in experiment [7], 90.6%; in experiment [8], 95.3%. Also, the inhibition entry in experiment [2] and in experiment [4] was “inactive” in each case. The same molecule registered an inhibition in experiment [3] of more than 35%.
With `CC1CCc2c(c(CC3CC(=O)NC(=O)C3)nn2-c2ccccc2)C1` (centres undefined), the Activity in experiment [1] turned out to be 86.2%; in experiment [5], 89.6%; in experiment [6], 91.7%; in experiment [7], 95.6%; in experiment [8] it was 101%. For the same molecule, the inhibition entry in experiment [2] and in experiment [4] was “inactive” throughout. The molecule also yielded an inhibition in experiment [3] of more than 35%.
As to `O=C1N=C(Nc2nc3ccccc3[nH]2)OC1c1ccccc1` (centres undefined), the Activity was 99.9% in experiment [1]; 83.6% in experiment [5]; 94.4% in experiment [6]; 121% in experiment [7]; 102% in experiment [8]. The inhibition result in experiment [2] and in experiment [4] was “inactive” throughout. The inhibition in experiment [3] is more than 35%.
With `N=c1c2c(ncn1Cc1ccccc1)CCN(Cc1ccccc1)C2`, the Activity in experiment [1] came to 91.6%; in experiment [5], 93.9%; in experiment [6], 96.2%; in experiment [7], 82.3%; in experiment [8], 80.1%. The inhibition result in experiment [2] and in experiment [4] was “inactive” each time. Further, in experiment [3], the inhibition is more than 35%.
As for `O=C1C/C(=C/c2cccc(OCc3ccccc3)c2)C(=O)N1`, the Activity in experiment [1] was determined as 128%; in experiment [5], 83.1%; in experiment [6], 94.4%; in experiment [7] it was 112%; in experiment [8], 67.1%. Further, the inhibition result in experiment [2] and in experiment [4] was “inactive” throughout. In experiment [3], this molecule gave an inhibition of more than 35%.
With `O=C(O)c1cnc2cc(OCCc3ccc(F)cc3)ccc2c1O`, the Activity in experiment [1] was 72.5%; in experiment [5], 75.9%; in experiment [6] it was 66.9%; in experiment [7], 89.1%; in experiment [8] it was 87.6%. The inhibition entry in experiment [2] and in experiment [4] was “inactive” throughout. This molecule also registered an inhibition in experiment [3] of more than 35%.
On to `CC(=O)NC(CC(=O)Nc1cccc2c1Cc1ccccc1-2)C(=O)O` (centres undefined), for which the Activity in experiment [1] turned out to be 81%; in experiment [5], 96.3%; in experiment [6], 107%; in experiment [7], 94.2%; in experiment [8] it was 102%. The inhibition result in experiment [2] and in experiment [4] was “inactive” each time. For the same molecule, in experiment [3], the inhibition was more than 35%.
Turning to `O=C(c1ccc2ccccc2n1)C(O)c1ccc2ccccc2n1` (centres undefined), the inhibition result in experiment [2] and in experiment [4] was “inactive” throughout. The molecule also returned an inhibition in experiment [3] of more than 35%. Further, the figures for the Activity in experiment [6], in experiment [7] and in experiment [8] were 99.8%, 111% and 99.6%, respectively.

The inhibition is the change of the read-out against control, counted positive when it falls.
